Measured values published in patent publication EP4273147A1, “SUBSTITUTED SPIROLACTAMS, SALTS THEREOF AND THEIR USE AS HERBICIDALLY ACTIVE SUBSTANCES” (Bayer Aktiengesellschaft, priority 2022, dated 2023).
One block for each compound: values may come before it.

Legend:
LOLRI [1] = test: Herbicidal pre-emergence action (Table A3); assay type: in vivo, Lolium rigidum; details: application rate 320 g/ha; visual grading after ca. 3 weeks
Outline: (§1)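 Seeds covered with soil after sowing in sandy loam; every pot carried one monocotyledonous and one dicotyledonous weed species as a double sowing.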

MATIN [2] = test: Herbicidal pre-emergence action (Table A4); assay type: in vivo, Matricaria inodora; details: visual grading after ca. 3 weeks
Outline: as §1

SETVI [3] = test: Herbicidal pre-emergence action (Table A5); assay type: in vivo, Setaria viridis; details: visual grading after ca. 3 weeks
Outline: as §1

STEME = test: Herbicidal pre-emergence action (Table A6); assay type: in vivo, Stellaria media; details: visual grading after ca. 3 weeks
Outline: as §1

POAAN [4] = test: Herbicidal pre-emergence action (Table A7); assay type: in vivo, Poa annua; details: application rate 320 g/ha; visual grading after ca. 3 weeks
Outline: as §1

ALOMY [5] = test: Herbicidal pre-emergence action (Table A9); assay type: in vivo, Alopecurus myosuroides; details: visual grading after ca. 3 weeks
Outline: as §1

KCHSC = test: Herbicidal pre-emergence action (Table A10); assay type: in vivo, Kochia scoparia; details: application rate 1280 g/ha; visual grading after ca. 3 weeks
Outline: as §1

VERPE [6] = test: Herbicidal pre-emergence action (Table A11); assay type: in vivo, Veronica persica; details: visual grading after ca. 3 weeks
Outline: as §1

DIGSA [7] = test: Herbicidal pre-emergence action (Table A12); assay type: in vivo, Digitaria sanguinalis; details: application rate 320 g/ha; visual grading after ca. 3 weeks
Outline: as §1

ECHCG [8] = test: Herbicidal post-emergence action (Table B3); assay type: in vivo, Echinochloa crus-galli; details: rated visually after about 3 weeks
Outline: (§2)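 Plants grown from seed in a greenhouse are treated at the one-leaf stage, two to three weeks after sowing. They then stay under optimum growth conditions for about three weeks before herbicidal activity is scored visually on a 0–100% scale against untreated controls.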

POAAN [9] = test: Herbicidal post-emergence action (Table B7); assay type: in vivo, Poa annua
Outline: as §2

ABUTH [10] = test: Herbicidal pre-emergence action, section C (Table C1); assay type: in vivo, Abutilon theophrasti; details: visual grading after ca. 3 weeks
ALOMY [11] = test: Herbicidal pre-emergence action, section C (Table C2); assay type: in vivo, Alopecurus myosuroides; details: visual grading after ca. 3 weeks
AVEFA = test: Herbicidal pre-emergence action, section C (Table C4); assay type: in vivo, Avena fatua; details: application rate 320 g/ha; visual grading after ca. 3 weeks
Source text: (§4) Seeds of mono- and dicotyledonous weed plants and crop plants were sown, in plastic or organic planting pots, in sandy loam and covered with soil. The compounds according to the invention, formulated in the form of wettable powders (WP) or as emulsifiable concentrates (EC), were applied to the surface of the covering soil as aqueous suspension or emulsion, with the addition of 0.5% of an additive, at an application rate of 600 1 of water/ha (converted). Following treatment, the pots were placed in a greenhouse and kept under optimum growth conditions for the test plants.

DIGSA [12] = test: Herbicidal pre-emergence action, section C (Table C5); assay type: in vivo, Digitaria sanguinalis; details: visual grading after ca. 3 weeks
ECHCG [13] = test: Herbicidal pre-emergence action, section C (Table C6); assay type: in vivo, Echinochloa crus-galli; details: application rate 80 g/ha; visual grading after ca. 3 weeks
LOLRI [14] = test: Herbicidal pre-emergence action, section C (Table C7); assay type: in vivo, Lolium rigidum; details: application rate 320 g/ha; visual grading after ca. 3 weeks
Source text: as §4

SETVI [15] = test: Herbicidal pre-emergence action, section C (Table C10); assay type: in vivo, Setaria viridis; details: visual grading after ca. 3 weeks
Source text: as §4

VERPE [16] = test: Herbicidal pre-emergence action, section C (Table C11); assay type: in vivo, Veronica persica; details: application rate 320 g/ha; visual grading after ca. 3 weeks
VIOTR [17] = test: Herbicidal pre-emergence action, section C (Table C12); assay type: in vivo, Viola tricolor; details: application rate 80 g/ha; visual grading after ca. 3 weeks
ZEAMX [18] = test: Pre-emergence effects on crop plants (Table D1); assay type: in vivo, Zea mays; details: crop plant; application rate 80 g/ha; visual grading after ca. 3 weeks
TRZAS [19] = test: Pre-emergence effects on crop plants (Table D2); assay type: in vivo, Triticum aestivum; details: crop plant; application rate 80 g/ha; visual grading after ca. 3 weeks
Source text: Seeds of mono- and dicotyledonous weed plants and crop plants were sown, in plastic or organic planting pots, in sandy loam and covered with soil. The compounds according to the invention, formulated in the form of wettable powders (WP) or as emulsifiable concentrates (EC), were applied to the surface of the covering soil as aqueous suspension or emulsion, with the addition of 0.5% of an additive, at an application rate of 600 1 of water/ha (converted).
Following treatment, the pots were placed in a greenhouse and kept under optimum growth conditions for the test plants.

GLXMA = test: Pre-emergence effects on crop plants (Table D4); assay type: in vivo, Glycine max; details: crop plant; application rate 80 g/ha; visual grading after ca. 3 weeks
ABUTH [20] = test: Herbicidal post-emergence action, section E (Table E1); assay type: in vivo, Abutilon theophrasti; details: application rate 320 g/ha; assessed visually after ca. 3 weeks
Source text: (§3) 2 to 3 weeks after sowing, the test plants were sprayed in the single-leaf stage.

VERPE [21] = test: Herbicidal post-emergence action, section E (Table E9); assay type: in vivo, Veronica persica; details: application rate 320 g/ha; assessed visually after ca. 3 weeks
Source text: as §3

VIOTR [22] = test: Herbicidal post-emergence action, section E (Table E10); assay type: in vivo, Viola tricolor; details: application rate 320 g/ha; assessed visually after ca. 3 weeks
Source text: as §3

ZEAMX [23] = test: Post-emergence effects on crop plants (Table F1); assay type: in vivo, Zea mays; details: application rate 80 g/ha, crop plant ZEAMX
Source text: as §3

TRZAS [24] = test: Post-emergence effects on crop plants (Table F2); assay type: in vivo, Triticum aestivum; details: crop plant TRZAS
Source text: as §3

ORYZA [25] = test: Post-emergence effects on crop plants (Table F3); assay type: in vivo, Oryza sativa; details: crop plant ORYZA
Source text: as §3

ORYZA [26] = test: Pre-emergence effects on crop plants (Table D3); details: crop plant; application rate 320 g/ha; visual grading after ca. 3 weeks
ABUTH [27] = test: Herbicidal pre-emergence action (Table A1); assay type: in vivo, Abutilon theophrasti; details: application rate 320 g/ha; visual grading after ca. 3 weeks vs untreated controls (100% = plants have died off, 0% = as control plants)
Outline: as §1

ECHCG [28] = test: Herbicidal pre-emergence action (Table A2); assay type: in vivo, Echinochloa crus-galli; details: application rate 320 g/ha; visual grading after ca. 3 weeks
Outline: as §1

AMARE = test: Herbicidal pre-emergence action (Table A8); assay type: in vivo, Amaranthus retroflexus; details: application rate 1280 g/ha; visual grading after ca. 3 weeks vs untreated controls (100% = plants have died off, 0% = as control plants)
Outline: as §1

ABUTH [29] = test: Herbicidal post-emergence action (Table B1); assay type: in vivo, Abutilon theophrasti; details: application rate 320 g/ha; treated at one-leaf stage; rated visually after about 3 weeks vs untreated controls (100% = plants have died, 0% = like control plants)
Outline: as §2

ALOMY [30] = test: Herbicidal post-emergence action (Table B2); assay type: in vivo, Alopecurus myosuroides; details: application rate 320 g/ha; rated visually after about 3 weeks
Outline: as §2

LOLRI [31] = test: Herbicidal post-emergence action (Table B5); assay type: in vivo, Lolium rigidum; details: application rate 320 g/ha; rated visually after about 3 weeks
Outline: as §2

MATIN [32] = test: Herbicidal post-emergence action (Table B6); assay type: in vivo, Matricaria inodora; details: application rate 320 g/ha; rated visually after about 3 weeks
Outline: as §2

SETVI [33] = test: Herbicidal post-emergence action (Table B8); assay type: in vivo, Setaria viridis; details: application rate 320 g/ha
Outline: as §2

VERPE [34] = test: Herbicidal post-emergence action (Table B10); assay type: in vivo, Veronica persica; details: application rate 320 g/ha
Outline: as §2

DIGSA [35] = test: Herbicidal post-emergence action (Table B12); assay type: in vivo, Digitaria sanguinalis; details: application rate 320 g/ha
Outline: as §2

MATIN [36] = test: Herbicidal pre-emergence action, section C (Table C8); assay type: in vivo, Matricaria inodora; details: application rate 320 g/ha; visual grading after ca. 3 weeks
POLCO = test: Herbicidal pre-emergence action, section C (Table C9); assay type: in vivo, Polygonum convolvulus; details: application rate 320 g/ha; visual grading after ca. 3 weeks
ALOMY [37] = test: Herbicidal post-emergence action, section E (Table E2); assay type: in vivo, Alopecurus myosuroides; details: application rate 320 g/ha; assessed visually after ca. 3 weeks
Source text: as §3

DIGSA [38] = test: Herbicidal post-emergence action, section E (Table E4); assay type: in vivo, Digitaria sanguinalis; details: application rate 320 g/ha; assessed visually after ca. 3 weeks
Source text: as §3

ECHCG [39] = test: Herbicidal post-emergence action, section E (Table E5); assay type: in vivo, Echinochloa crus-galli; details: application rate 80 g/ha; assessed visually after ca. 3 weeks
Source text: as §3

LOLRI [40] = test: Herbicidal post-emergence action, section E (Table E6); assay type: in vivo, Lolium rigidum; details: application rate 320 g/ha; assessed visually after ca. 3 weeks
Source text: as §3

SETVI [41] = test: Herbicidal post-emergence action, section E (Table E8); assay type: in vivo, Setaria viridis; details: application rate 320 g/ha; assessed visually after ca. 3 weeks
Source text: as §3

pre-emergence activity against ZEAMX (ZEAMX [18]): 0%
pre-emergence activity against TRZAS (TRZAS [19]): 0%
pre-emergence activity against GLXMA (GLXMA): 0%
pre-emergence activity against ORYZA (ORYZA [26]): 0%
Structure (SMILES): O=C1N(Cc2ccccc2Cl)CCCC12CCN(Cc1cccc(F)c1F)C2=O (racemic) [I-035]
pre-emergence activity against LOLRI (LOLRI [1]): 100%
pre-emergence activity against MATIN (MATIN [2]; application rate 1280 g/ha): 90%
pre-emergence activity against SETVI (SETVI [3]; application rate 1280 g/ha): 100%
pre-emergence activity against STEME (STEME; application rate 1280 g/ha): 90%
pre-emergence activity against POAAN (POAAN [4]): 100%
pre-emergence activity against ALOMY (ALOMY [5]; application rate 1280 g/ha): 90%
pre-emergence activity against KCHSC (KCHSC): 90%
pre-emergence activity against VERPE (VERPE [6]; application rate 1280 g/ha): 90%
pre-emergence activity against DIGSA (DIGSA [7]): 100%
post-emergence activity against ECHCG (ECHCG [8]; application rate 1280 g/ha): 90%
post-emergence activity against POAAN (POAAN [9]; application rate 1280 g/ha): 90%
pre-emergence activity against ABUTH (ABUTH [10]; application rate 320 g/ha): 80%
pre-emergence activity against ALOMY (ALOMY [11]; application rate 320 g/ha): 80%
pre-emergence activity against AVEFA (AVEFA): 100%
pre-emergence activity against DIGSA (DIGSA [12]; application rate 320 g/ha): 100%
pre-emergence activity against ECHCG (ECHCG [13]): 100%
pre-emergence activity against LOLRI (LOLRI [14]): 90%
pre-emergence activity against SETVI (SETVI [15]; application rate 320 g/ha): 100%
pre-emergence activity against VERPE (VERPE [16]): 90%
pre-emergence activity against VIOTR (VIOTR [17]): 90%
post-emergence activity against ABUTH (ABUTH [20]): 90%
post-emergence activity against VERPE (VERPE [21]): 80%
post-emergence activity against VIOTR (VIOTR [22]): 80%
post-emergence activity against ZEAMX (ZEAMX [23]): 0%
post-emergence activity against TRZAS (TRZAS [24]; application rate 320 g/ha): 0%
post-emergence activity against ORYZA (ORYZA [25]; application rate 320 g/ha): 0%

pre-emergence activity against GLXMA (GLXMA): 0%
Structure (SMILES): O=C1N(Cc2ccccc2F)CCCC12CCCN(Cc1ccccc1F)C2=O (single isomer, unassigned) [I-001]
pre-emergence activity against ABUTH (ABUTH [27]): 90%
pre-emergence activity against ECHCG (ECHCG [28]): 100%
pre-emergence activity against LOLRI (LOLRI [1]): 100%
pre-emergence activity against MATIN (MATIN [2]; application rate 320 g/ha): 90%
pre-emergence activity against SETVI (SETVI [3]; application rate 320 g/ha): 100%
pre-emergence activity against STEME (STEME; application rate 320 g/ha): 90%
pre-emergence activity against POAAN (POAAN [4]): 100%
pre-emergence activity against AMARE (AMARE): 90%
pre-emergence activity against ALOMY (ALOMY [5]; application rate 320 g/ha): 90%
pre-emergence activity against KCHSC (KCHSC): 90%
pre-emergence activity against VERPE (VERPE [6]; application rate 320 g/ha): 90%
pre-emergence activity against DIGSA (DIGSA [7]): 100%
post-emergence activity against ABUTH (ABUTH [29]): 90%
post-emergence activity against ALOMY (ALOMY [30]): 90%
post-emergence activity against ECHCG (ECHCG [8]; application rate 320 g/ha): 100%
post-emergence activity against LOLRI (LOLRI [31]): 90%
post-emergence activity against MATIN (MATIN [32]): 90%
post-emergence activity against POAAN (POAAN [9]; application rate 320 g/ha): 90%
post-emergence activity against SETVI (SETVI [33]): 90%
post-emergence activity against VERPE (VERPE [34]): 90%
post-emergence activity against DIGSA (DIGSA [35]): 90%
pre-emergence activity against ABUTH (ABUTH [10]; application rate 80 g/ha): 80%
pre-emergence activity against ALOMY (ALOMY [11]; application rate 80 g/ha): 100%
pre-emergence activity against DIGSA (DIGSA [12]; application rate 80 g/ha): 100%
pre-emergence activity against ECHCG (ECHCG [13]): 100%
pre-emergence activity against LOLRI (LOLRI [14]): 100%
pre-emergence activity against MATIN (MATIN [36]): 100%
pre-emergence activity against POLCO (POLCO): 80%
pre-emergence activity against SETVI (SETVI [15]; application rate 80 g/ha): 100%
pre-emergence activity against VERPE (VERPE [16]): 90%
pre-emergence activity against VIOTR (VIOTR [17]): 90%
post-emergence activity against ABUTH (ABUTH [20]): 80%
post-emergence activity against ALOMY (ALOMY [37]): 90%
post-emergence activity against DIGSA (DIGSA [38]): 80%
post-emergence activity against ECHCG (ECHCG [39]): 90%
post-emergence activity against LOLRI (LOLRI [40]): 90%
post-emergence activity against SETVI (SETVI [41]): 100%
post-emergence activity against VERPE (VERPE [21]): 90%
post-emergence activity against VIOTR (VIOTR [22]): 80%
post-emergence activity against ZEAMX (ZEAMX [23]): 0%
post-emergence activity against TRZAS (TRZAS [24]; application rate 80 g/ha): 0%
post-emergence activity against ORYZA (ORYZA [25]; application rate 80 g/ha): 0%
